The assay concerns the target IRAK4 (Homo sapiens (Human), UniProt Q9NWZ3). Put plainly: IRAK4 Kinase Assay. Particulars: IMAP fluorescence polarization, 0.5 nM GST tagged IRAK4, 100 μM ATP, 30 minutes at 25° C. The format is biochemical.

Counter-ions that a name gives are not always drawn. Like-named read-outs stand apart in the source and are kept apart here.

IRAK4, sequence (Q9NWZ3 whole entry): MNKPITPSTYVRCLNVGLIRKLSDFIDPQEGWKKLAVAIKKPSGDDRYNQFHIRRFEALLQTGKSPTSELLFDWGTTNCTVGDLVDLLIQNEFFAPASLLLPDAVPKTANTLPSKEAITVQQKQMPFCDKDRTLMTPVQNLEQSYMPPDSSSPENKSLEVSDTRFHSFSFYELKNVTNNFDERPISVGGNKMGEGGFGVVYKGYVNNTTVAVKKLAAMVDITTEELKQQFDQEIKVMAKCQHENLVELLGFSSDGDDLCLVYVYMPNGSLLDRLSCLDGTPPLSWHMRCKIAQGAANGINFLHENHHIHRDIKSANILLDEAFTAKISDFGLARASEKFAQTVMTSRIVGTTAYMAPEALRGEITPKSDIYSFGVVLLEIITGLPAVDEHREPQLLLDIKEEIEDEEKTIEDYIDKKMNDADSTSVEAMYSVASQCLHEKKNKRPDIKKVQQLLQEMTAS

Broadly, the IC50 is the concentration that inhibits the measured activity by half. On to `Cn1cc(NC(=O)c2cnn3ccc(N4CC[C@H](F)[C@H](N)C4)nc23)c(C(F)F)n1` (single isomer, unassigned) [Example 179, 5-[(3S,4R)- or (3R,4S)-3-amino-4-fluoropiperidin-1-yl]-N-[3-(difluoromethyl)-1-methyl-1H-pyrazol-4-yl]pyrazolo[1,5-a]pyrimidine-3-carboxamide trifluoroacetate], for which the IC50 (read-out: IRAK4 IC50) is 0.5 nM.
Regarding `N[C@H]1CCCC[C@H]1Nc1ccn2ncc(C(=O)Nc3cscc3C(F)F)c2n1` [Example 119, 5-{[(1R,2S)-2-aminocyclohexyl]amino}-N-[4-(difluoromethyl)thiophen-3-yl]pyrazolo[1,5-a]pyrimidine-3-carboxamide trifluoroacetate], for the setting “read-out: IRAK4 IC50”, the IC50 was 0.5 nM.
Still for that read-out and setting: for `Cn1cc(NC(=O)c2cnn3ccc(N4CC5CNC(COC5)C4)nc23)c(C(F)(F)F)n1` (stereo not shown) [Example 80, N-[1-methyl-3-(trifluoromethyl)-1H-pyrazol-4-yl]-5-(3-oxa-7,9-diazabicyclo[3.3.2]dec-7-yl)pyrazolo[1,5-a]pyrimidine-3-carboxamide trifluoroacetate] the value was 29 nM.
On the same count and under the same terms, next, `N[C@H]1CCCC[C@H]1Nc1ccn2ncc(C(=O)Nc3ccoc3C(F)(F)F)c2n1` [Example 45, 5-{[(1R,2S)-2-aminocyclohexyl]amino}-N-[2-(trifluoromethyl)furan-3-yl]pyrazolo[1,5-a]pyrimidine-3-carboxamide trifluoroacetate]: 8 nM; `N[C@H]1CCCC[C@H]1Nc1ccn2ncc(C(=O)Nc3ccccc3Br)c2n1` [Example 113, 5-{[(1R,2S)-2-aminocyclohexyl]amino}-N-(2-bromophenyl)pyrazolo[1,5-a]pyrimidine-3-carboxamide trifluoroacetate]: 2 nM; `Cn1cc(NC(=O)c2cnn3ccc(N4CCC[C@@H](N)C4)nc23)c(C(F)F)n1` [Example 90, 5-[(3R)-3-aminopiperidin-1-yl]-N-[3-(difluoromethyl)-1-methyl-1H-pyrazol-4-yl]pyrazolo[1,5-a]pyrimidine-3-carboxamide trifluoroacetate]: 0.5 nM.
On the same count and under the same terms, next, `CC(C)(C)n1cc(NC(=O)c2cnn3ccc(N4CC5CCC4CN5)nc23)c(C(F)(F)F)n1` (stereo not shown) [Example 50, N-[1-tert-butyl-3-(trifluoromethyl)-1H-pyrazol-4-yl]-5-(2,5-diazabicyclo[2.2.2]oct-2-yl)pyrazolo[1,5-a]pyrimidine-3-carboxamide trifluoroacetate]: 90 nM; `O=C(Nc1ccsc1Br)c1cnn2ccc(N[C@@H]3CCCC[C@@H]3O)nc12` [Example 196, N-(2-bromothiophen-3-yl)-5-{[(1R,2S)-2-hydroxycyclohexyl]amino} pyrazolo[1,5-a]pyrimidine-3-carboxamide trifluoroacetate]: 2650 nM; `Cn1cc(NC(=O)c2cnn3ccc(N4C[C@H]5CNC[C@@H]4C5)nc23)c(C(F)(F)F)n1` (single isomer, unassigned) [Example 84, 5-[(1S,5R)- or (1R,5S)-3,6-diazabicyclo[3.2.1]oct-6-yl]-N-[1-methyl-3-(trifluoromethyl)-1H-pyrazol-4-yl]pyrazolo[1,5-a]pyrimidine-3-carboxamide]: 158 nM.
In the case of `O=C(Nc1ccccc1C(F)(F)F)c1cnn2ccc(N3CC4CCC3CN4)nc12` (stereo not shown) [Example 115, 5-(2,5-diazabicyclo[2.2.2]oct-2-yl)-N-[2-(trifluoromethyl)phenyl] pyraozlo[1,5-a]pyrimidine-3-carboxamide trifluoroacetate], the IC50 (read-out: IRAK4 IC50) was 5600 nM.
In the case of `Cn1cc(NC(=O)c2cnn3ccc(NC4CCCCNC4)nc23)c(C(F)F)n1` (stereo not shown) [Example 99, 5-(azepan-3-ylamino)-N-[3-(difluoromethyl)-1-methyl-1H-pyrazol-4-yl]pyrazolo[1,5-a]pyrimidine-3-carboxamide], the IC50 (read-out: IRAK4 IC50) is 3 nM.
Same read-out and setting: for `O=C(Nc1cscc1Br)c1cnn2ccc(N3CCCNCC3)nc12` [Example 123, N-(4-bromothiophen-3-yl)-5-(1,4-diazepan-1-yl)pyrazolo[1,5-a]pyrimidine-3-carboxamide trifluoroacetate] the value was 389 nM.
Same read-out and setting: for `N[C@@H]1[C@H](Nc2ccn3ncc(C(=O)Nc4ccsc4Cl)c3n2)CCCC1(F)F` [Example 118, 5-{[(1R,2R)-2-amino-3,3-difluorocyclohexyl]amino}-N-(2-chlorothiophen-3-yl)pyrazolo[1,5-a]pyrimidine-3-carboxamide trifluoroacetate] the value was 342 nM.
For the compound `Cn1cc(NC(=O)c2cnn3ccc(N[C@H]4CC(F)(F)CC[C@H]4N)nc23)c(C(F)F)n1` (single isomer, unassigned) [Example 208, 5-{[(1S,2R)- or (1R,2S)-2-amino-5,5-difluorocyclohexyl]amino}-N-[3-(difluoromethyl)-1-methyl-1H-pyrazol-4-yl]pyrazolo[1,5-a]pyrimidine-3-carboxamide], the IC50 (IRAK4 IC50 (nM)) worked out at 38 nM.
As for `Cn1cc(NC(=O)c2cnn3ccc(N[C@@H]4CCCC[C@@H]4N)nc23)c(Cl)n1` [Example 149, 5-{[(1R,2S)-2-aminocyclohexyl]amino}-N-(3-chloro-1-methyl-1H-pyrazol-4-yl)pyrazolo[1,5-a]pyrimidine-3-carboxamide trifluoroacetate], the IC50 (read-out: IRAK4 IC50) was determined as 0.5 nM.
Consider `Cn1cc(NC(=O)c2cnn3ccc(N[C@@H]4CCC(F)(F)C[C@@H]4N)nc23)c(C(F)F)n1` (single isomer, unassigned) [Example 211, 5-{[(1S,2R)- or (1R,2S)-2-amino-4,4-difluorocyclohexyl]amino}-N-[3-(difluoromethyl)-1-methyl-1H-pyrazol-4-yl]pyrazolo[1,5-a]pyrimidine-3-carboxamide], for which the IC50 (read-out: IRAK4 IC50) turned out to be 27 nM.
In the case of `N[C@@H]1[C@H](Nc2ccn3ncc(C(=O)Nc4ccsc4Cl)c3n2)CCCC1(F)F` [Example 190, 5-{[(1R,2R)-2-amino-3,3-difluorocyclohexyl]amino}-N-(2-chlorothiophen-3-yl)pyrazolo[1,5-a]pyrimidine-3-carboxamide], the IC50 (read-out: IRAK4 IC50) amounted to 891 nM.
On the same count and under the same terms, next, `N[C@H]1CCCC[C@H]1Nc1ccn2ncc(C(=O)Nc3cscc3Br)c2n1` [Example 76, 5-{[(1R,2S)-2-aminocyclohexyl]amino}-N-(4-bromothiophen-3-yl)pyrazolo[1,5-a]pyrimidine-3-carboxamide trifluoroacetate]: 0.9 nM.
`Cn1cc(NC(=O)c2cnn3ccc(N4C[C@@H]5CNC[C@H]4C5)nc23)c(C(F)(F)F)n1` (single isomer, unassigned) [Example 83, 5-[(1S,5R)- or (1R,5S)-3,6-diazabicyclo[3.2.1]oct-6-yl]-N-[1-methyl-3-(trifluoromethyl)-1H-pyrazol-4-yl]pyrazolo[1,5-a]pyrimidine-3-carboxamide]: where the note is “read-out: IRAK4 IC50”, the IC50 was determined as 33 nM.
Same read-out and setting: next, `Cn1cc(NC(=O)c2cnn3ccc(N4C[C@H](N)C[C@H](F)C4)nc23)c(C(F)F)n1` [Example 251, 5-[(3R,5S)-3-amino-5-fluoropiperidin-1-yl]-N-[3-(difluoromethyl)-1-methyl-1H-pyrazol-4-yl]pyrazolo[1,5-a]pyrimidine-3-carboxamide trifluoroacetate]: 0.7 nM; `O=C(Nc1ccccc1Br)c1cnn2ccc(N[C@@H]3CCCC[C@@H]3O)nc12` [Example 195, N-(2-bromophenyl)-5-{[(1R,2S)-2-hydroxycyclohexyl]amino} pyrazolo[1,5-a]pyrimidine-3-carboxamide]: 2930 nM; `Cn1cc(NC(=O)c2cnn3ccc(N4CC5CNCC4C5)nc23)c(C(F)(F)F)n1` (stereo not shown) [Example 82, 5-(3,6-diazabicyclo[3.2.1]oct-6-yl)-N-[1-methyl-3-(trifluoromethyl)-1H-pyrazol-4-yl]pyrazolo[1,5-a]pyrimidine-3-carboxamide trifluoroacetate]: 114 nM.
As for `CC(C)n1cc(NC(=O)c2cnn3ccc(N[C@@H]4CCCC(F)(F)[C@@H]4N)nc23)c(C(F)(F)F)n1` [Example 56, 5-{[(1R,2R)-2-amino-3,3-difluorocyclohexyl]amino}-N-[1-(1-methylethyl)-3-(trifluoromethyl)-1H-pyrazol-4-yl]pyrazolo[1,5-a]pyrimidine-3-carboxamide trifluoroacetate], the IC50 (read-out: IRAK4 IC50) stood at 626 nM.
On to `Cn1cc(NC(=O)c2cnn3ccc(N4CCNC5(CC4)CC5)nc23)c(C(F)(F)F)n1` [Example 220, 5-(4,7-diazaspiro[2.6]non-7-yl)-N-[1-methyl-3-(trifluoromethyl)-1H-pyrazol-4-yl]pyrazolo[1,5-a]pyrimidine-3-carboxamide trifluoroacetate], for which the IC50 (IRAK4 IC50 (nM)) was found to be 153 nM.
For the compound `Cn1cc(NC(=O)c2cnn3ccc(N[C@H]4CCCCC[C@H]4N)nc23)c(C(F)(F)F)n1` (relative stereo) [Example 33, 5-{[cis-2-aminocycloheptyl]amino}-N-[1-methyl-3-(trifluoromethyl)-1H-pyrazol-4-yl]pyrazolo[1,5-a]pyrimidine-3-carboxamide], the IC50 (read-out: IRAK4 IC50) was found to be 2 nM.
The same measure, in the same setting: next, `Cn1cc(NC(=O)c2cnn3ccc(N4CC5CCC4CN5)nc23)c(C(F)F)n1` (stereo not shown) [Example 96, 5-(2,5-diazabicyclo[2.2.2]oct-2-yl)-N-[3-(difluoromethyl)-1-methyl-1H-pyrazol-4-yl]pyrazolo[1,5-a]pyrimidine-3-carboxamide trifluoroacetate]: 2 nM; `N[C@H]1CCCC[C@H]1Nc1ccn2ncc(C(=O)Nc3cn(CC(F)F)nc3C(F)(F)F)c2n1` [Example 292, 5-{[(1R,2S)-2-aminocyclohexyl]amino}-N-[1-(2,2-difluoroethyl)-3-(trifluoromethyl)-1H-pyrazol-4-yl]pyrazolo[1,5-a]pyrimidine-3-carboxamide trifluoroacetate]: 0.8 nM; `N[C@H]1CCCC[C@H]1Nc1ccn2ncc(C(=O)Nc3cn(C4CC4)nc3C(F)(F)F)c2n1` [Example 293, 5-{[(1R,2S)-2-aminocyclohexyl]amino}-N-[1-cyclopropyl-3-(trifluoromethyl)-1H-pyrazol-4-yl]pyrazolo[1,5-a]pyrimidine-3-carboxamide trifluoroacetate]: 0.4 nM.
